The structures appear in SMILES notation. Read-outs that look alike come from different tables or passages of the source.

Experiment [1] concerns HIV-1 reverse transcriptase, recovered from plasma of HIV-1 infected patients. The experiment can be described thus: ExaVir Drug susceptibility assay (RT-based phenotypic), RT recovered from patient plasma. The class given is biochemical. The procedure:
Lysates containing intraviral RT were recovered from plasma using ExaVir Load, version 3 (Cavidi, Uppsala, Sweden). Briefly, virions from up to 1 ml plasma were bound to an ion exchange gel, washed, and the RT was extracted by lysing the purified virions. The RT was used to catalyse the incorporation of bromodeoxyuridine triphosphate (BrdUTP) into DNA via a poly-rA (ribodenylic acid template) plate. The amount of BrdU monophosphate (BrdUMP) incorporated into DNA was detected with an alkaline phosphatase (Ap) conjugated anti-BrdU monoclonal antibody. The Ap substrate para-nitrophenyl-diphosphate was used for colorimetric detection. […] The RT activity at each drug concentration was recalculated into percentage of RT activity in the absence of drug. The IC50 values were calculated using the median effect equation [23]. […] In the present study, two reference recombinant RTs, BH10-wild-type and its mutant form L100I, were analysed together with patient samples in each assay. The results of the phenotypic tests were evaluated independently by two persons (E.A, C.FR.K).

In experiment [2] the target is HIV-1 reverse transcriptase, recovered from plasma of HIV-1 infected patients. Also on record: method as in PMID 23364785. The conditions noted are these: cited from earlier work.

In the case of `Cc1cc(C#N)cc(C)c1Oc1nc(Nc2ccc(C#N)cc2)nc(N)c1Br` [ETR, 4-[[6-amino-5-bromo-2[(4-cyanophenyl)amino]-4-pyrimidinyl]oxy]-3.5-dimethylbenzonitrile], the “result of phenotypic assay” value is given as “sensitive” in experiment [1] (patient 4, K103R mutation, NNRTI-naïve); “No phenotypic resistance” in experiment [1] (patients/samples 7, 11b, 15, 9a and 12, NNRTI stopped earlier). The half-inhibitory concentration (IC50) in experiment [1] (read-out: IC50 to ETR, mean ±SD, ten samples considered sensitive (3a, 4, 7, 9a, 11b, 12, 15, 16, 17, 18)) is 3.1 ± 1.3 µM; in experiment [1] (read-out: IC50 to ETR, range, six samples with decreased susceptibility (1, 9b, 10, 11a, 19, 20)), 6.4 to 13.6 µM; in experiment [1] (read-out: IC50 to ETR, patient sample 1) it was 11.8 µM; in experiment [1] (read-out: IC50 to ETR, patient sample 2), more than 100 µM; in experiment [1] (read-out: IC50 to ETR, patient sample 3b), more than 100 µM; in experiment [1] (read-out: IC50 to ETR, patient sample 6), more than 100 µM. The IC50 is more than 100 µM in experiment [1] (read-out: IC50 to ETR, patient sample 8a); more than 100 µM in experiment [1] (read-out: IC50 to ETR, patient sample 8b); 9.2 µM in experiment [1] (read-out: IC50 to ETR, patient sample 9b); 13.6 µM in experiment [1] (read-out: IC50 to ETR, patient sample 10); 7.3 µM in experiment [1] (read-out: IC50 to ETR, patient sample 11a); 6.4 µM in experiment [1] (read-out: IC50 to ETR, patient sample 19). For the same compound, the half-inhibitory concentration (IC50) was 7.2 µM in experiment [1] (read-out: IC50 to ETR, patient sample 20); 1.6 ± 0.03 µM in experiment [2] (read-out: IC50 for ETR, mean ± SD (reproducibility analysis, first value), not influenced by RT amount within 40–828 fg/ml RT); 3.1 ± 0.04 µM in experiment [2] (read-out: IC50 for ETR, mean ± SD (reproducibility analysis, second value), not influenced by RT amount within 40–828 fg/ml RT); 2.5 ± 1 µM in experiment [2] (read-out: IC50 for RT activity in the presence of ETR, mean ±SD, treatment-naïve patients and reference recombinant RTs).
